Assay results taken from patent US10035810B2, “5,6-dihydro-4H-benzo[b]thieno-[2,3-d]azepine derivative” (PULMOCIDE LIMITED, priority 2014, dated 2018).

What was measured:
HEp2 cells = assay: Cell viability: resazurin assay; assay type: cell-based, human; conditions: incubation with compound
Method: Cell Viability: Resazurin Assay
HEp2 cells were seeded in 384-well plates (10^3/well/50 μL; BD Falcon Ref 353962) in FBS DMEM (5%, containing 2 mM L-glutamine and 1 mM sodium pyruvate) one day before experimentation. Serum-free DMEM (50 μL) was added to test wells while for control wells the media was removed and sterile water (100 μL) was added. Compound (I) (0.5 μL DMSO solution) was added to give a final DMSO concentration of 0.5%. Hep2 cells were incubated with each test compound for 5 days (37° C./5% CO2 in 5% FBS) and then resazurin stock solution (5 μL; 0.03%) was added to each well and the plate incubated for a further 6 hr (37° C./5% CO2). The fluorescence of each well at 545 nm (excitation) and 590 nm (emission) was determined using a multi-scanner (Clariostar: BMG Labtech). The percentage loss of cell viability was calculated for each well relative to vehicle (0.5% DMSO) treatment.
Any apparent increase in cell viability associated with test compound treatment relative to vehicle is consequently tabulated as a negative percentage. Where appropriate, a CC50 value was calculated from the concentration-response curve generated for Compound (I).

RANTES gene transcript = assay: RSV infection in cotton rats: RANTES gene transcript in lung (qRT-PCR); assay type: in vivo, cotton rats (Sigmodon hispidus); conditions: for RANTES gene transcript % inhibition / RANTES gene transcript (/β-actin), Median: cotton rats, lung, intranasal
Method: RSV Infection in Cotton Rats
Male Sigmodon hispidus cotton rats between 6 and 8 weeks of age were infected with hRSV/A/Long (ATCC, Manassas, Va.; 10^5 pfu) in a volume of 0.1 mL of sucrose stabilizing media. Compound (I) was dissolved in 100% DMSO (at 3.3, 10, 33 and 100 mg/mL), then diluted at 1:10 in isotonic saline to achieve 10% DMSO in all treatments. Formulations were then sonicated to produce suspensions. The resulting suspensions were administered intranasally (50 μL) by pipette 4 hr before infection (on day 0), and then on days 1, 2 and 3 post infection. Four days after RSV challenge, the animals were euthanised and the lungs were removed. The left lobe was used for viral titration via plaque assay and the lingular lobe for RSV/A/Long NS-1 qRT-PCR and cytokine qRT-PCR.
Total RNA was also extracted from homogenized lung tissue (RNeasy purification kit; Qiagen) and a sample (1 μg) was used to prepare cDNA using QuantiTect Reverse Transcription Kit (Qiagen). For real-time PCR reactions (RSV NS-1 and RANTES genes) the QuantiFast SYBR® Green PCR Kit (Qiagen) was used in a final volume of 25 μL, with final primer concentrations of 0.5 μM. Amplifications were performed on a Bio-Rad iCycler for 1 cycle of 95° C. for 3 min, followed by 40 cycles of 95° C. for 10 sec, 60° C. for 10 sec, and 72° C. for 15 sec. Baseline cycles and cycle threshold (Ct) were calculated by the iQ5 software in the PCR Base Line Subtracted Curve Fit mode. The standard curves were developed using serially diluted cDNA sample most enriched in the transcript of interest (e.g., lungs from day 4 post-primary RSV infection). The Ct values were plotted against login cDNA dilution factor. These curves were used to convert the Ct values obtained for different samples to relative expression units which were then normalized to the level of β-actin mRNA (“housekeeping gene”) expressed in the corresponding sample. The mRNA levels were expressed as the geometric mean±SEM for all animals in a group.

RSV B Washington strain = assay: RSV B-induced CPE in HEp2 cells; assay type: cell-based; conditions: human respiratory syncytial virus
Method: Assessment of RSV Induced CPE in HEp2 Cells
HEp2 cells were seeded (10^3/well/50 μL) in 384-well plates (Catalogue number 353962, BD Falcon, Oxford, UK) in […] containing 2 mM L-glutamine and 1 mM sodium pyruvate one day before infection. RSV A2 strain (#0709161v, NCPV, Public Health England, Wiltshire) or RSV B Washington strain (VR-1580, ATCC, Manassas, Va. 20108) virus solutions were prepared in serum free-DMEM with 2 mM L-glutamine and 1 mM sodium pyruvate, and then added (50 μL/well) to achieve a final virus concentration of 1 MOI. Simultaneously Compound (I) (0.5 μL DMSO solution) was added to 100 μL of HEp2 cell culture with virus solution to provide a final DMSO solution of 0.5%. Plates were incubated (37° C./5% CO2) for 5 days for studies using RSV A2 strain or 6 days for those using RSV B strain, and then resazurin sodium salt (5 μL of 0.03% solution; Sigma-Aldrich, Dorset, UK) was added to each well and the plate incubated for a further 6 hr (37° C./5% CO2). The fluorescence of each well [545 nm (excitation)/590 nm (emission)] was determined using a multi-scanner (Clariostar: BMG, Buckinghamshire, UK). The percentage inhibition for each well was calculated and the IC50, IC75 and IC90 values were calculated from the concentration-response curve generated for Compound (I).

Cc1cnc(N2CC3(CCOCC3)C2)c(C(=O)Nc2ccc(C(=O)N3CCc4cc(C(=O)Nc5c(C)cccc5F)sc4-c4ccccc43)cc2)c1 [Compound (I), N-(2-fluoro-6-methylphenyl)-6-(4-(5-methyl-2-(7-oxa-2-azaspiro[3.5]nonan-2-yl)nicotinamido)benzoyl)-5,6-dihydro-4H-benzo[b]thieno[2,3-d]azepine-2-carboxamide]
Effect on cell viability (in words) (HEp2 cells): No effect on cell viability | RANTES gene transcript % inhibition (RANTES gene transcript; 0.33 mg/mL): 28% | RANTES gene transcript (/β-actin), Median (RANTES gene transcript; 0.33 mg/mL): 0.21 /β-actin | RANTES gene transcript % inhibition (RANTES gene transcript; 1.0 mg/mL): 45% | RANTES gene transcript (/β-actin), Median (RANTES gene transcript; 1.0 mg/mL): 0.16 /β-actin | RANTES gene transcript % inhibition (RANTES gene transcript; 3.3 mg/mL): 62% | RANTES gene transcript (/β-actin), Median (RANTES gene transcript; 3.3 mg/mL): 0.11 /β-actin | RANTES gene transcript % inhibition (RANTES gene transcript; 10 mg/mL): 55% | RANTES gene transcript (/β-actin), Median (RANTES gene transcript; 10 mg/mL): 0.13 /β-actin | RANTES transcripts in lung (in words) (RANTES gene transcript; infected cotton rats): dose-dependent inhibition | IC50 (RSV B Washington strain; HEp-2, 144 h, 1 MOI, 6 days): 10.2 nM | inhibition at 1 µg/mL (RSV B Washington strain; HEp-2, at 1 μg/mL): 72%
